Experimental data taken from ChEMBL document CHEMBL3232945 (Eur J Med Chem, 2014).

How the values were obtained:
[1] = test system: Rattus norvegicus; assay: Toxicity in anaesthetized-Wistar rat assessed as P-Q ECG interval at 40 mg/kg, ip after 60 mins (reference value: […] +/- 0.924 ms); type: organism-based; design: dose 40 mg/kg, route intraperitoneal; conditions: in vivo, 1 h
[2] = test system: Rattus norvegicus; assay: Toxicity in anaesthetized-Wistar rat assessed as P-Q ECG interval at 40 mg/kg, ip after 45 mins (reference value: 52.5 +/- 0.780 ms); type: organism-based; design: dose 40 mg/kg, route intraperitoneal; conditions: in vivo, 0.75 h
[3] = test system: Rattus norvegicus; assay: Toxicity in anesthetized-normotensive Wistar rat assessed as heart rate at 40 mg/kg, ip after 60 mins (reference value: 314.96 +/- 9.442 bpm); type: organism-based; design: dose 40 mg/kg, route intraperitoneal; conditions: in vivo, 1 h
[4] = test system: Rattus norvegicus; assay: Toxicity in anesthetized-normotensive Wistar rat assessed as heart rate at 40 mg/kg, ip measured immediately at 0 min (reference value: 316.62 +/- 9.643 bpm); type: organism-based; design: dose 40 mg/kg, route intraperitoneal; conditions: in vivo, 0 h
[5] = test system: Rattus norvegicus; assay: Toxicity in anaesthetized-Wistar rat assessed as Q-T ECG interval at 40 mg/kg, ip after 60 mins (reference value: 79.7 +/- 0.965 ms); type: organism-based; design: dose 40 mg/kg, route intraperitoneal; conditions: in vivo, 1 h
[6] = test system: Rattus norvegicus; assay: Toxicity in […] normotensive Wistar rat assessed as mean arterial pressure at 40 mg/kg, ip measured immediately at 0 min (reference value: 94.21 +/- 2.065 mmHg); type: organism-based, Artery; design: dose 40 mg/kg, route intraperitoneal; conditions: in vivo, 0 h
[7] = test system: Rattus norvegicus; assay: Toxicity in anaesthetized-Wistar rat assessed as QRS ECG interval at 40 mg/kg, ip after 45 mins (reference value: 20.2 +/- 1.348 ms); type: organism-based; design: dose 40 mg/kg, route intraperitoneal; conditions: in vivo, 0.75 h
[8] = test system: Rattus norvegicus; assay: Toxicity in anaesthetized-Wistar rat assessed as Q-T ECG interval at 40 mg/kg, ip measured immediately at 0 min (reference value: 78.8 +/- 1.030 ms); type: organism-based; design: dose 40 mg/kg, route intraperitoneal; conditions: in vivo, 0 h
[9] = test system: Rattus norvegicus; assay: Toxicity in anaesthetized-Wistar rat assessed as P-Q ECG interval at 40 mg/kg, ip measured immediately at 0 min (reference value: 52.4 +/- 0.927 ms); type: organism-based; design: dose 40 mg/kg, route intraperitoneal; conditions: in vivo, 0 h
[10] = test system: Rattus norvegicus; assay: Toxicity in anaesthetized-Wistar rat assessed as QRS ECG interval at 40 mg/kg, ip measured immediately at 0 min (reference value: 19.6 +/- 1.142 ms); type: organism-based; design: dose 40 mg/kg, route intraperitoneal; conditions: in vivo, 0 h
[11] = test system: Rattus norvegicus; assay: Toxicity in anaesthetized-Wistar rat assessed as Q-T ECG interval at 40 mg/kg, ip after 45 mins (reference value: 78.8 +/- 0.927 ms); type: organism-based; design: dose 40 mg/kg, route intraperitoneal; conditions: in vivo, 0.75 h
[12] = test system: Rattus norvegicus; assay: Toxicity in anesthetized-normotensive Wistar rat assessed as heart rate at 40 mg/kg, ip after 45 mins (reference value: 316.82 +/- 8.452 bpm); type: organism-based; design: dose 40 mg/kg, route intraperitoneal; conditions: in vivo, 0.75 h
[13] = test system: Rattus norvegicus; assay: Antihypertensive activity in Wistar rat assessed as mean arterial pressure at 40 mg/kg, ip after 15 mins (reference value: 195.68 +/- 1.623 mmHg); type: functional, Artery; conditions: route intraperitoneal
[14] = test system: Rattus norvegicus; assay: Toxicity in anesthetized-normotensive Wistar rat assessed as heart rate at 40 mg/kg, ip after 15 mins (reference value: 313.93 +/- 9.912 bpm); type: organism-based; design: dose 40 mg/kg, route intraperitoneal; conditions: in vivo, 0.25 h
[15] = test system: Rattus norvegicus; assay: Toxicity in […] normotensive Wistar rat assessed as mean arterial pressure at 40 mg/kg, ip after 30 mins (reference value: 94.68 +/- 1.213 mmHg); type: organism-based, Artery; design: dose 40 mg/kg, route intraperitoneal; conditions: in vivo, 0.5 h
[16] = test system: Rattus norvegicus; assay: Antihypertensive activity in Wistar rat assessed as mean arterial pressure at 40 mg/kg, ip after 45 mins (reference value: 193.96 +/- 0.865 mmHg); type: functional, Artery; conditions: route intraperitoneal
[17] = test system: Rattus norvegicus; assay: Toxicity in anesthetized-normotensive Wistar rat assessed as heart rate at 40 mg/kg, ip after 30 mins (reference value: 317.68 +/- 7.631 bpm); type: organism-based; design: dose 40 mg/kg, route intraperitoneal; conditions: in vivo, 0.5 h
[18] = test system: Rattus norvegicus; assay: Toxicity in anaesthetized-Wistar rat assessed as QRS ECG interval at 40 mg/kg, ip after 30 mins (reference value: 19.9 +/- 1.393 ms); type: organism-based; design: dose 40 mg/kg, route intraperitoneal; conditions: in vivo, 0.5 h
[19] = test system: Rattus norvegicus; assay: Antiarrhythmic activity in barium chloride-induced Wistar rat assessed as increase in mortality time at 40 mg/kg, ip administered 60 mins before barium chloride challenge (reference value: 682.8 +/- 9.656 secs); type: functional, Heart; conditions: route intraperitoneal
[20] = test system: Rattus norvegicus; assay: Antihypertensive activity in Wistar rat assessed as mean arterial pressure at 40 mg/kg, ip after 60 mins (reference value: 195.11 +/- 0.531 mmHg); type: functional, Artery; conditions: route intraperitoneal
[21] = test system: Rattus norvegicus; assay: Antihypertensive activity in Wistar rat assessed as mean arterial pressure at 40 mg/kg, ip after 30 mins (reference value: 194.72 +/- 1.002 mmHg); type: functional, Artery; conditions: route intraperitoneal
[22] = test system: Rattus norvegicus; assay: Antiarrhythmic activity in barium chloride-induced Wistar rat assessed as increase in appearance time of arrhythmia at 40 mg/kg, ip administered 60 mins before barium chloride challenge (reference value: 129.4 +/- 4.373 sec); type: functional, Heart; conditions: route intraperitoneal
[23] = test system: Rattus norvegicus; assay: Toxicity in anaesthetized-Wistar rat assessed as P-Q ECG interval at 40 mg/kg, ip after 15 mins (reference value: 52.2 +/- 1.158 ms); type: organism-based; design: dose 40 mg/kg, route intraperitoneal; conditions: in vivo, 0.25 h
[24] = test system: Rattus norvegicus; assay: Toxicity in anaesthetized-Wistar rat assessed as QRS ECG interval at 40 mg/kg, ip after 15 mins (reference value: 18.9 +/- 1.563 ms); type: organism-based; design: dose 40 mg/kg, route intraperitoneal; conditions: in vivo, 0.25 h
[25] = test system: Rattus norvegicus; assay: Toxicity in anaesthetized-Wistar rat assessed as QRS ECG interval at 40 mg/kg, ip after 60 mins (reference value: 19.3 +/- 0.873 ms); type: organism-based; design: dose 40 mg/kg, route intraperitoneal; conditions: in vivo, 1 h
[26] = test system: Rattus norvegicus; assay: Toxicity in anaesthetized-Wistar rat assessed as Q-T ECG interval at 40 mg/kg, ip after 30 mins (reference value: 78.3 +/- 0.860 ms); type: organism-based; design: dose 40 mg/kg, route intraperitoneal; conditions: in vivo, 0.5 h
[27] = test system: Rattus norvegicus; assay: Antihypertensive activity in Wistar rat assessed as mean arterial pressure at 40 mg/kg, ip measured immediately at 0 min (reference value: 194.08 +/- 1.962 mmHg); type: functional, Artery; conditions: route intraperitoneal
[28] = test system: Rattus norvegicus; assay: Toxicity in anaesthetized-Wistar rat assessed as P-Q ECG interval at 40 mg/kg, ip after 30 mins (reference value: […] +/- 0.927 ms); type: organism-based; design: dose 40 mg/kg, route intraperitoneal; conditions: in vivo, 0.5 h
[29] = test system: Rattus norvegicus; assay: Toxicity in […] normotensive Wistar rat assessed as mean arterial pressure at 40 mg/kg, ip after 15 mins (reference value: 93.81 +/- 1.543 mmHg); type: organism-based, Artery; design: dose 40 mg/kg, route intraperitoneal; conditions: in vivo, 0.25 h
[30] = test system: Rattus norvegicus; assay: Toxicity in anaesthetized-Wistar rat assessed as Q-T ECG interval at 40 mg/kg, ip after 15 mins (reference value: 79.4 +/- 1.270 ms); type: organism-based; design: dose 40 mg/kg, route intraperitoneal; conditions: in vivo, 0.25 h
[31] = test system: Rattus norvegicus; assay: Toxicity in […] normotensive Wistar rat assessed as mean arterial pressure at 40 mg/kg, ip after 45 mins (reference value: 94.83 +/- 0.943 mmHg); type: organism-based, Artery; design: dose 40 mg/kg, route intraperitoneal; conditions: in vivo, 0.75 h
[32] = test system: Rattus norvegicus; assay: Toxicity in […] normotensive Wistar rat assessed as mean arterial pressure at 40 mg/kg, ip after 60 mins (reference value: 95.07 +/- 1.973 mmHg); type: organism-based, Artery; design: dose 40 mg/kg, route intraperitoneal; conditions: in vivo, 1 h

SMILES	Activity [1] [min]	Activity [2] [min]	Activity [3] [bpm]	Activity [4] [bpm]	Activity [5] [ms]	Activity [6] [mmHg]	Activity [7] [min]	Activity [8] [min]	Activity [9] [ms]	Activity [10] [min]	Activity [11] [min]	Activity [12] [bpm]	Activity [13] [mmHg]	Activity [14] [bpm]	Activity [15] [mmHg]	Activity [16] [mmHg]	Activity [17] [bpm]	Activity [18] [ms]	Time [19] [s]	Activity [20] [mmHg]	other results
CCN(CC)CC(O)CN1C(=O)/C(=C\c2ccccc2)S/C1=N\c1ccccc1 (centres undefined)	55.6	54.2	312.28	319.65	86.4	91.39	20.6	80.4	52	18.4	84.8	309.56	172.98	312.24	68.93	119.43	274.66	21.2	1142.4	159.87	Activity [21]: 161.27 mmHg; Time [22]: 343.1 s; Activity [23]: 52.2 min; Activity [24]: 19.4 min; Activity [25]: 21.4 min; Activity [26]: 83.2 min; Activity [27]: 194.43 mmHg; Activity [28]: 53.8 min; Activity [29]: 79.23 mmHg; Activity [30]: 81.4 min; Activity [31]: 63.51 mmHg; Activity [32]: 73.31 mmHg
O=C1/C(=C\c2ccccc2)S/C(=N\c2ccccc2)N1CC(O)CN1CCN(c2ccccc2)CC1 (centres undefined)	54.2	53.9	301.92	318.34	75	94.56	24.1	73.5	52.4	21.8	74.9	287.25	180.43	309.46	76.84	156.09	295.41	23.5	964.4	182.32	Activity [21]: 146.27 mmHg; Time [22]: 285.4 s; Activity [23]: 52.7 min; Activity [24]: 22.2 min; Activity [25]: 24.7 min; Activity [26]: 74.2 min; Activity [27]: 194.87 mmHg; Activity [28]: 53.3 min; Activity [29]: 86.43 mmHg; Activity [30]: 73.9 min; Activity [31]: 79.26 mmHg; Activity [32]: 83.55 mmHg
